These results are taken from ChEMBL document CHEMBL5126668, “The Invention of WM382, a Highly Potent PMIX/X Dual Inhibitor toward the Treatment of Malaria” (ACS Med Chem Lett, 2022).

Values after ≈ are worked out from the molar mass of the structure shown. Some results are limits rather than exact numbers.

The nature of data set [1]: Kinetic solubility of the compound. In kind it is physicochemical. The note with it: read-out: Kinetic_solubility.
Data set [2] in a line: Unbound volume of distribution in rat. In kind it is ADME. The conditions noted are these: in vivo.
Data set [3] in a line: Unbound plasma clearance in mouse. The note with it: in vivo. In kind it is ADME, organism-based.
Another data set deals with T1, Plasmepsin IX (Plasmodium falciparum, UniProt Q8ILG2).
T1 sequence (Q8ILG2 whole entry): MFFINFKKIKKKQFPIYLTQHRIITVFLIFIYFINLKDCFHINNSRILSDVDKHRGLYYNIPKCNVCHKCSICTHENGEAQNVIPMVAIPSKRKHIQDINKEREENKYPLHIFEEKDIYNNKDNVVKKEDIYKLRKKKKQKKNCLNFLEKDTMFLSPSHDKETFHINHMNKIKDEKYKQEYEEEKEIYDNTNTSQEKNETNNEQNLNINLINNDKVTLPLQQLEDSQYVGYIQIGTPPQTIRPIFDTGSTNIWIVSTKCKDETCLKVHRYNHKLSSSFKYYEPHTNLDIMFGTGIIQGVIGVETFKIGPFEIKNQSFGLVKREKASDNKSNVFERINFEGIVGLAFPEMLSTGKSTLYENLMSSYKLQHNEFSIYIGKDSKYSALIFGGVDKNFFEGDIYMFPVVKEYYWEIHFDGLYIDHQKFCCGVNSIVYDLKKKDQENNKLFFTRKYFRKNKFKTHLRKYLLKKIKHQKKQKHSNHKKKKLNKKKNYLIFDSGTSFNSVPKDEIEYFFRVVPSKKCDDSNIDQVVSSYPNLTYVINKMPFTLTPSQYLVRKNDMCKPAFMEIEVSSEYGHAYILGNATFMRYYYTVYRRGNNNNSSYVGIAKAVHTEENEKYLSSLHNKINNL
Kind of data set: Inhibition of Plasmodium falciparum 3D7 HA-glms-tagged PMIX using DABCYL-HSFIQEGKEE-EDANS as substrate measured after 2 hrs by FRET assay.

Data set [4] relates to Plasmodium falciparum. The experiment in a line: Antimalarial activity Plasmodium falciparum Dd2 assessed as minimum inoculum for resistance measured up to 62 days by microscopy. In kind it is functional. The conditions noted are these: time <= 62 day.
The nature of data set [5]: Unbound volume of distribution in mouse. The note with it: in vivo. In kind it is ADME, organism-based.
Data set [6] in a line: Plasma clearance in rat. In kind it is ADME.
The nature of data set [7]: Lipophilicity, log D of compound at pH 7.4. In kind it is physicochemical. The note with it: buffer.
Data set [8] in a line: Plasma clearance in mouse. In kind it is ADME, organism-based.
Data set [9] is described as follows: Mean residence time in rat. In kind it is ADME. The conditions noted are these: in vivo.
In data set [10] the test system is Plasmodium falciparum. Kind of data set: Antimalarial activity Plasmodium falciparum Dd2 assessed as EC90 fold pressure measured up to 62 days by microscopy. In kind it is functional. The conditions noted are these: Dd2, 1488 h, time <= 62 day.
Data set [11] in a line: Volume of distribution in rat. In kind it is ADME. The conditions noted are these: in vivo.
Data set [12] relates to Plasmodium falciparum. Kind of data set: Antimalarial activity against asexual blood stage Plasmodium falciparum infected in RBC measured after 72 hrs by LDH release assay. In kind it is functional, organism-based. The note with it: Erythrocyte.
Data set [13] can be described thus: Mean residence time in mouse. The conditions noted are these: in vivo. In kind it is ADME, organism-based.
Another data set concerns the target Plasmepsin X (Plasmodium falciparum (isolate 3D7), UniProt Q8IAS0). Kind of data set: Inhibition of Plasmodium falciparum 3D7 HA-glms-tagged PMX using DABCYL-HSFIQEGKEE-EDANS as substrate measured after 2 hrs by FRET assay.
Data set [14] in a line: Oral bioavailability in rat. In kind it is ADME, organism-based. The note with it: in vivo.
Data set [15] can be described thus: Unbound clearance in rat. The note with it: in vivo. In kind it is ADME.
The target in data set [16] is Plasmepsin X (Plasmodium falciparum (isolate 3D7)) (UniProt Q8IAS0). The experiment in a line: Inhibition of Plasmodium falciparum 3D7 HA-glms-tagged PMX at 10 nM using DABCYL-HSFIQEGKEE-EDANS as substrate measured after 2 hrs by FRET assay relative to control.
Data set [17] addresses T2, Plasmepsin IX (Plasmodium falciparum) (UniProt Q8ILG2).
T2 sequence (whole entry): T1 sequence (Q8ILG2 whole entry)
The experiment in a line: Inhibition of Plasmodium falciparum 3D7 HA-glms-tagged PMIX at 10 nM using DABCYL-HSFIQEGKEE-EDANS as substrate measured after 2 hrs by FRET assay relative to control.

Plasmepsin X, sequence (Q8IAS0 whole entry): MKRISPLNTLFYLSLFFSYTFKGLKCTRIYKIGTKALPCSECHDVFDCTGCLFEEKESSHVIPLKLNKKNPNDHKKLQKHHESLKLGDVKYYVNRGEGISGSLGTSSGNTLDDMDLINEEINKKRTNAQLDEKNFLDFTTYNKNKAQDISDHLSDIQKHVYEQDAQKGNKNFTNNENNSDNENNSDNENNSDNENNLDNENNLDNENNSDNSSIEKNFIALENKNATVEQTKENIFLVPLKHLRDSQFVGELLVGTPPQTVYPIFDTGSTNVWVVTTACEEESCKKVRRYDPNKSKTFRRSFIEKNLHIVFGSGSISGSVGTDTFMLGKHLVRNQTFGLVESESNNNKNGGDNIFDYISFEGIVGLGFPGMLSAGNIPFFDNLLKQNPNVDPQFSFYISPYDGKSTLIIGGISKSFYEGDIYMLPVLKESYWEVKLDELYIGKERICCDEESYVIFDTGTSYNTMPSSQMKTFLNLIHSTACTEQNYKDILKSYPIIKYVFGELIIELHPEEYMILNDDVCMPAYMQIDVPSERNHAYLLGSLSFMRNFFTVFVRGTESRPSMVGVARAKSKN
Plasmepsin X (Plasmodium falciparum (isolate 3D7)), sequence (Q8IAS0 whole entry): as above

As for `CCC1(CC)CC(=O)N([C@@H]2CCOc3ccc(C(=O)N[C@H]4CC(C)(C)Oc5ccccc54)cc32)C(=N)N1`, the solubility kinetic in [1] amounted to 0.1 µM (≈ 0.0505 µg/mL). The Vdu is 222 L/kg in [2] and 120 L/kg in [5]. Also, the CL free in [3] was found to be 774 mL/min/kg; in data set [15] it was 1022 mL/min/kg. Besides, the IC50 against Plasmepsin IX stood at 1.4 nM; against Plasmepsin X, 0.03 nM. The Activity in the data set on Plasmodium falciparum [4] is given as greater than 9. Also, the clearance in data set [6] and in data set [8] was 42 mL/min/kg throughout. The logD in data set [7] was determined as 2.5. Moreover, the MRT in data set [9] was 3.7 h; in data set [13], 2.5 h. Besides, in the data set with Plasmodium falciparum [10], the 90% effect concentration (EC90) is 1.5 nM. Besides, the Vd in data set [11] came out at 9.4 L/kg. A half-maximal response in the data set on Plasmodium falciparum [12] (EC50) required 0.4 nM. The same compound had a bioavailability in [14] of 8%.

`CCC1(CC)CC(=O)N([C@@H]2CCOc3ccc(C(=O)NC4CC(=O)Oc5ccccc54)cc32)C(=N)N1` (mixture of isomers): the inhibition in [16] was 40%; in data set [17], 12%. Further, in the data set with Plasmodium falciparum [12], the EC50 amounted to 220 nM.
